# Measurements reported in US11840489B2, “Symbiosis-promoting agent and method for promoting symbiosis of arbuscular mycorrhizal fungi” (TOYOTA JIDOSHA KABUSHIKI KAISHA, priority 2020, dated 2023).
# Assays:
# [1] = test system: arbuscular mycorrhizal fungi (Rhizophagus irregularis DAOM197198); conditions: 30 degrees C., 1 week, FIG. 7
# Method: The modified M medium (0.3% gerlite, Becard and Fortin, 1988 New phytologist, 108, 211-218) was supplemented with oxidized glutathione (10 microM or 100 microM), spores of arbuscular mycorrhizal fungi (Rhizophagus irregularis DAOM197198) were inoculated, and culture was conducted at 30 degrees C. for 4 weeks. For comparison, arbuscular mycorrhizal fungi were cultured in the same manner, except that oxidized glutathione was not added. The number of hyphae elongated outside of the circle (a radius of 7.5 mm) centered on the inoculated portion of the medium was counted, and the extent of elongation was determined based on the number of spores.
# In the same manner as in Example 1, reduced glutathione (10 mM) was added to the modified M medium (0.3% gerlite), spores of arbuscular mycorrhizal fungi (Rhizophagus irregularis DAOM197198) were inoculated therein, and culture was conducted at 30 degrees C. for 1 week. For comparison, arbuscular mycorrhizal fungi were cultured in the same manner, except that reduced glutathione was not added.
# [2] = test system: arbuscular mycorrhizal fungi; test: Infection rate of arbuscular mycorrhizal fungi in chives, soil with cystathionine, GSH or Phoron (Comparative Example 2); assay type: in vivo, Rhizophagus irregularis DAOM197198; conditions: 500 spores, 1 month, FIG. 6; for infection rate (amount of hyphae per root length): 0.1 or 1 mM in soil, vs control with 500 spores
# Method: (§1) Specifically, monocotyledonous plants of Allium (chives; Allium schoenoprasum) were infected with arbuscular mycorrhizal fungi (Rhizophagus irregularis DAOM197198), and the infection rate (%) of the mycorrhizal fungi that had invaded inside the roots was determined.
# (§2) Plants were infected with arbuscular mycorrhizal fungi in the same manner as in Example 2. That is, the medium (one-tenth of the amount, Hoagland No. 2 basal salt mixture (SIGMA), 0.1 mM KNO3) was added to fertilizer-free soil. As control samples, sterilized chive seeds were directly seeded in soil supplemented with spores of arbuscular mycorrhizal fungi (4,000 spores) and in soil supplemented with the spores and GSSG (10 or 100 microM). The plants were allowed to grow at 23 degrees C. with 16-hour light and 8-hour dark cycles for 4 weeks. Thereafter, chives were dug out, the arbuscular mycorrhizal fungi inside the root were stained with ink, and the infection rate of the mycorrhizal fungi (the amount of hyphae per root length (%)) was determined with observation under a microscope.
# In the same manner as in Example 3, the medium (one-tenth of the amount, Hoagland No. 2 basal salt mixture (SIGMA), 0.1 mM KNO3) was added to fertilizer-free soil. As control samples, sterilized chive seeds were directly seeded in soil supplemented with spores of arbuscular mycorrhizal fungi (500 spores and 1,000 spores) and in soil supplemented with the 500 spores, cystathionine (0.1 or 1 mM), GSH (0.1 or 1 mM), and Phoron (0.1 or 1 mM). The plants were allowed to grow at 23 degrees C. with 16-hour light and 8-hour dark cycles for 1 month. Thereafter, chives were dug out, the arbuscular mycorrhizal fungi inside the root were stained with ink, and the infection potential of the mycorrhizal fungi (the amount of hyphae per root length (%)) was determined with observation under a microscope.
# [3] = test system: arbuscular mycorrhizal fungi; test: Infection rate of arbuscular mycorrhizal fungi in chives, soil supplemented with cystathionine (Example 4); assay type: in vivo; conditions: 1 mM in soil, 4 weeks, vs cystathionine-free control, FIG. 4
# Method: Chives were used in this example. The medium (one-tenth of the amount, Hoagland No. 2 basal salt mixture (SIGMA), 0.1 mM KNO3) was added to fertilizer-free soil. As control samples, sterilized chive seeds were directly seeded in soil supplemented with spores of arbuscular mycorrhizal fungi (500 or 1,000 spores) and in soil supplemented with the spores and cystathionine (0.1 or 1 mM). The plants were allowed to grow at 23 degrees C. with 16-hour light and 8-hour dark cycles for 4 weeks. Thereafter, chives were dug out, the arbuscular mycorrhizal fungi inside the root were stained with ink, and the infection rate of the mycorrhizal fungi (the amount of hyphae per root length (%)) was determined with observation under a microscope.
# [4] = test system: arbuscular mycorrhizal fungi (Rhizophagus irregularis DAOM197198); test: Infection rate of arbuscular mycorrhizal fungi in roots of chives (Allium schoenoprasum) grown in supplemented soil (Example 3); assay type: in vivo; conditions: chives, 4,000 spores, 10 or 100 microM in soil, 4 weeks; vs control; Dunnett's test, n=8; FIG. 3
# Method: as §1, §2
# [5] = test system: arbuscular mycorrhizal fungi (Rhizophagus irregularis DAOM197198); test: Hyphal elongation of arbuscular mycorrhizal fungi in modified M medium, 4 weeks (Example 1); assay type: cell-based; conditions: 10 microM or 100 microM in medium, 30 degrees C., vs control without addition, p less than 0.05, Dunnett's test, n 16-19, FIG. 1
# [6] = test system: arbuscular mycorrhizal fungi (Rhizophagus irregularis DAOM197198); test: Infection rate of arbuscular mycorrhizal fungi in roots of Lotus japonicus grown in supplemented soil (Example 2); assay type: in vivo; conditions: Lotus japonicus, 4,000 spores, 4 weeks, FIG. 2
# Method: Specifically, plants of Leguminosae (Lotus japonicus) were infected with arbuscular mycorrhizal fungi (Rhizophagus irregularis DAOM197198) in soil supplemented with GSSG, and the infection rate (%) of the mycorrhizal fungi invaded inside the roots was determined.
# At the outset, the medium (one-tenth of the amount, Hoagland No. 2 basal salt mixture (SIGMA), 0.1 mM KNO3) was added to fertilizer-free soil. Also, control soil supplemented with spores of arbuscular mycorrhizal fungi (4,000 or 6,000 spores) and soil supplemented with spores of arbuscular mycorrhizal fungi (4,000 spores) and GSSG (10 or 100 microM) were prepared. Subsequently, seeds of Lotus japonicus (3 days after seeding) that had germinated in agar medium were transplanted therein. The plants were allowed to grow at 23 degrees C. with 16-hour light and 8-hour dark cycles for 4 weeks. Thereafter, Lotus japonicus was dug out, the arbuscular mycorrhizal fungi inside the root were stained with ink, and the infection rate of the mycorrhizal fungi (the amount of hyphae per root length (%)) was determined with observation under a microscope.
# [7] = test system: root nodule bacteria (Mesorhizobium loti); test: Root nodule bacterial infection of Lotus japonicus: root nodules and infection hyphae (Comparative Example 1); assay type: in vivo; conditions: 10 or 100 microM, FIG. 5
# Method: In this comparative example, root nodule bacteria from Lotus japonicus plants (Mesorhizobium loti, a transformant comprising a fluorescent protein (DsRED) introduced thereinto) were used. Vermiculite was supplemented with B&D medium (Broughton and Dilworth, 1971), KNO3 (final concentration: 0.1 mM), root nodule bacteria, and oxidized glutathione at 0, 10, or 100 microM to prepare media. The resulting media (50 ml) were added to 300 ml of fertilizer-free soil (vermiculite) in a pot, and young plants of Lotus japonicus 3 days after seeding were planted therein. The infection hyphae that serve as the routes of infection with root nodule bacteria formed in the root hair cells of Lotus japonicus and the root nodules that are symbiotic organs formed in the roots of Lotus japonicus were examined 1 week and 2 weeks after the growth.
compound,measurement,setting,value
"N[C@@H](CCC(=O)N[C@@H](CS)C(=O)NCC(=O)O)C(=O)O [reduced glutathione, N—(N-gamma-L-glutamyl-L-cysteinyl)glycine]",hyphal elongation of arbuscular mycorrhizal fungi at high concentration,[1]; 10 mM,no hyphal elongation was observed
same,spore survival,[1]; 10 mM,died
same,hyphal elongation of arbuscular mycorrhizal fungi,"[1]; medium supplemented with reduced glutathione, vs no addition",deteriorated hyphal elongation
same,infection rate (amount of hyphae per root length),[2],inhibited
"NC(CCSCC(N)C(=O)O)C(=O)O (centres unmarked) [cystathionine, 2-amino-4-(2-amino-2-carboxy-ethyl)thio-butanoic acid]",infection rate of the mycorrhizal fungi (amount of hyphae per root length),[3],significantly enhanced
same,"infection rate compared with the sample supplemented with 1,000 spores",[2]; 1 mM,equivalent
same,infection rate (amount of hyphae per root length),[2],enhanced
oxidized glutathione,infection rate of the mycorrhizal fungi (amount of hyphae per root length),[4],significantly enhanced
same,"hyphal elongation (number of hyphae elongated outside circle of radius 7.5 mm, per number of spores)",[5],significant effects of promoting hyphal elongation
same,"infection rate compared with control inoculated with 1.5 times greater amount of spores (6,000 spores)",[6]; 10 microM,equivalent
same,infection rate of the mycorrhizal fungi (amount of hyphae per root length),"[6]; 10 or 100 microM in soil, vs GSSG-free control (4,000 spores), Dunnett's test, n=8",significantly enhanced
same,"infection rate compared with control inoculated with 1.5 times greater amount of spores (6,000 spores)",[6]; 100 microM,enhance
same,formation of infection hyphae,[7]; 1 week after the growth,significant inhibitory effects
same,formation of root nodules,[7]; 1 week after the growth,significant inhibitory effects
same,inhibitory effects on formation of infection hyphae,[7]; 2 weeks after the growth,not observed
same,inhibitory effects on formation of root nodules,[7]; 2 weeks after the growth,not observed
"CC(C)=CC(=O)C=C(C)C [Phoron, reference compound]",infection rate (amount of hyphae per root length),[2],inhibited
